# pEC50: −log10 of the molar value. Read-outs that look alike come from different tables or passages of the source.
# Key:
# Assay type in all cases: cell-based
# [1] = tested on: Moloney-murine leukemia virus; test: Antivirus effect on Moloney-murine leukemia virus in SC-1 cells (method of Rowe et al), Table 1
# Description: (§1) The antivirus effect of the compound of general formula [II']of the invention was ascertained according to the test method by Rowe et al (J. W. Virology 1970, 42, 1136).
# (§2) Virus: Moloney-murine leukemia virus.
# [2] = tested on: Rous sarcoma virus (RSV); test: Effect on Rous sarcoma virus (RSV): inhibition of transformation of chick embryo fibroblast, Table 2; conditions: 4TO7, RSV infected about 30 minutes, judged under microscope after 4 to 7 days, concentration at which transformation was inhibited, read-out: Antivirus effect (on RSV), Concentration
# Method: EXAMPLE 2. EFFECT ON ROUS SARCOMA VIRUS (RSV) Employing cultured cells of the first generation (chick embryo fibroblast),RSV was infected for about 30 minutes. To this were added the samples diluted stepwise, and, after 4 to 7 days, which stage the transformation of cells due to RSV infection was inhibited at was judged under microscope.
# [3] = tested on: HIV (human immunodeficiency virus); test: Effect on HIV: inhibition of transformation of MT-4 cells due to HIV infection, Table 3; conditions: Human immunodeficiency virus 1, MT4, 72 h, HIV infected 1 hour at 37° C, judged under microscope after 3 days, concentration at which transformation was inhibited, read-out: Antivirus effect (on HIV), Concentration
# Method: EFFECT ON HIV (HUMAN IMMUNODEFICIENCY VIRUS)
# (§3) Employing MT-4 cells, HIV was infected for 1 hour at 37° C. To this were added the samples diluted stepwise, and, after 3 days, which stage the transformation of cells due to HIV infection was inhibited at was judged under microscope.
# [4] = tested on: Moloney-murine leukemia virus, RSV, HIV; test: Antivirus effect, summary of Table 1 through 3; conditions: as shown in Table 1 through 3
# Method: as §1, §2
# Employing cultured cells of the first generation (chick embryo fibroblast),RSV was infected for about 30 minutes. To this were added the samples diluted stepwise, and, after 4 to 7 days, which stage the transformation of cells due to RSV infection was inhibited at was judged under microscope.
# as §3
# [5] = Moloney-murine leukemia virus, SC-1 cells, read-out: ED50 (the source's name)
"pEC50 [1, 5]",SMILES,"pEC50 ([1]; SC-1, read-out: ED50)",minimal effective concentration [2] [µg/mL],minimal effective concentration [3] [µg/mL],antivirus effect compared with DDC [4]
–,"Cc1cn([C@H]2C[C@H](N=[N+]=[N-])[C@@H](CO)O2)c(=O)[nH]c1=O [AZT, 3Azido-3deoxy-thymidine]",7.70,–,–,–
5.40,"Nc1ccn([C@H]2CC[C@@H](CO)O2)c(=O)n1 [DDC, 2',3Dideoxy-cytidine]",–,0.5 to 1,1,–
5.43,"O=c1[nH]c(=S)ccn1[C@H]1CC[C@@H](CO)O1 [Compound of invention, 2',3'-dideoxy-4-thio-uridine]",–,5 to 10,10,excellent antivirus effect similar to that of DDC

# Source: patent US4954485A, “2',3'-dideoxy-4-thio-uridine derivatives, process for their preparation and antivirus agents using them” (priority 1987, dated 1990)
